Experimental data taken from patent US20080269298A1, “Benzimidazol-1-YL-thiophene compounds for the treatment of cancer” (priority 2002, published 2008).
Where a name gives a salt, the structure may show the parent alone.

How the values were obtained:
[1] = tested on: lung (H460) tumor cell line; test: Methylene Blue Growth Inhibition Assay, H460; format: cell-based; details: Homo sapiens, NCI-H460, 72 h; Cell Line H460, 3 days; read-out: MeB IC50
Method: (§1) Normal Human foreskin fibroblasts (HFF) and human colon (HCT116, RKO), lung (H460), prostate (PC3), and breast tumor (MCF7) cell lines were cultured in high glucose DMEM (Life Technologies) containing 10% fetal bovine serum (FBS) at 37° C. in a humidified 10% CO2, 90% air incubator. Cells were harvested using trypsin/EDTA, counted using a haemocytometer, and plated in 100 μl of the appropriate media, at the following densities, in a 96-well tissue culture plate (Falcon 3075): HFF 5,000 cells/well, HCT116 3,000 cells/well, RKO 2,500 cells/well, H460 2,000 cells/well, PC3 8,000 cells/well, MCF7 4,000 cells/well. The next day, compounds were diluted in DMEM containing 100 μg/ml gentamicin, at twice the final required concentration, from 10 mM stock solutions in DMSO. 100μ/well of these dilutions were added to the 100 μl of media currently on the cell plates. Medium containing 0.6% DMSO was added to control wells. Compounds diluted in DMEM were added to all cell lines. The final concentration of DMSO in all wells was 0.3%. Cells were incubated at 37° C., 10% CO2 for 3 days. Medium was removed by aspiration. Cell biomass was estimated by staining cells with […] per well methylene blue (Sigma M9140, 0.5% in 50:50 ethanol:water), and incubation at room temperature for at least 30 minutes. Stain was removed, and the plates rinsed under a gentle stream of water, and air-dried. To release stain from the cells 100 μl of solubilization solution was added (1% N-lauroyl sarcosine, Sodium salt, Sigma L5125, in PBS), and plates were shaken gently for about 30 minutes. Optical density at 620 nm was measured on a microplate reader. Percent inhibition of cell growth was calculated relative to vehicle treated control wells. Concentration of compound that inhibits 50% of cell growth (IC50) was interpolated using nonlinear regression (Levenberg-Marquardt) and the equation, y=Vmax*(1-(x/(K+x)))+Y2, where “K” was equal to the IC50. In Table 1, +=10−>30 uM; ++=1−10 uM: +++=<1 uM.

[2] = tested on: colon (RKO) tumor cell line; test: Methylene Blue Growth Inhibition Assay, RKO; format: cell-based; details: Homo sapiens, 72 h, 3 days, read-out: MeB IC50
Method: as §1

[3] = tested on: breast tumor (MCF7) cell line; test: Methylene Blue Growth Inhibition Assay, MCF7; format: cell-based; details: Homo sapiens, 72 h; Cell Line MCF7, 3 days; read-out: MeB IC50
Method: as §1

[4] = tested on: prostate (PC3) tumor cell line; test: Methylene Blue Growth Inhibition Assay, PC3; format: cell-based; details: Homo sapiens, 72 h; Cell Line PC3, 3 days; read-out: MeB IC50
Method: as §1

[5] = tested on: colon (HCT116) tumor cell line; test: Methylene Blue Growth Inhibition Assay, HCT116; format: cell-based; details: Homo sapiens, HCT-116, 72 h; Cell Line HCT116, 3 days; read-out: MeB IC50
Method: as §1

PLK1 kinase domain = molecular target: T1, PLK1 kinase domain (Homo sapiens, UniProt P53350); test: Assay for Inhibition of PLK1 (SPA enzyme activity); format: biochemical; details: 2 μM ATP, read-out: Ave pIC50 PLK Enzyme Inhibition (converted)
T1 construct: made in house; host or cells: baculovirus-infected T. ni insect cells
T1 sequence (P53350 21-346): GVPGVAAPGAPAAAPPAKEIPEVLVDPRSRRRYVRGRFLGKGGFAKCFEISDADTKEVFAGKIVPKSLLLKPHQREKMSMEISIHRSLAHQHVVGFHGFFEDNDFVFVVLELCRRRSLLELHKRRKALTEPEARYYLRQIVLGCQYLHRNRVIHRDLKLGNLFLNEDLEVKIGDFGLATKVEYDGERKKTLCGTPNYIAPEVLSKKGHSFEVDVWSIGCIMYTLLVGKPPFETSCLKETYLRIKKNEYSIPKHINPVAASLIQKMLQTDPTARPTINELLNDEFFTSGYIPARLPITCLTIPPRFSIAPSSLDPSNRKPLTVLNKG
Method: All procedures were performed at 4° C. Cells were lysed in so mM HEPES, 200 mM NaCl, so mM imidazole, 5% glycerol; pH 7.5. The homogenate was centrifuged at 14K rpm in a SLA-1500 rotor for 1 hr and the supernatant filtered through a 1.2 micron filter. The supernatant was loaded onto a Nickel chelating Sepharose (Amersham Pharmacia) column and washed with lysis buffer. Protein was eluted using 20%, 30% and 100% buffer B steps where buffer B is 50 mM HEPES, 200 mM NaCl, 300 mM imidazole, 5% glycerol; pH 7.5. Fractions containing PLK were determined by SDS-PAGE. Fractions containing PLK were diluted five-fold with so mM HEPES, 1 mM DTT, 5% glycerol; pH 7.5, then loaded on an SP Sepharose (Amersham Pharmacia) column. After washing the column with so mM HEPES, 1 mM DTT, 5% glycerol; pH 7.5, PLK was step eluted with so mM HEPES, 1 mM DTT, 500 mM NaCl; 5% glycerol; pH 7.5. PLK was concentrated using a 10 kDa molecular weight cutoff membrane and then loaded onto a Superdex 200 gel filtration (Amersham Pharmacia) column equilibrated in 25 mM HEPES, 1 mM DTT, 500 mM NaCl, 5% glycerol; pH 7.5. Fractions containing PLK were determined by SDS-PAGE. PLK was pooled, aliquoted and stored at −80° C. Samples were quality controlled using mass spectrometry, N-terminal sequencing and amino acid analysis.
B. Enzyme activity+/−inhibitors was determined as follows:
Compounds were added to the plate (1 μl in […]). […] Reaction Mix B is prepared as follows at 4° C.: • Reaction Mix B (Enzyme Mix) • 25 mM HEPES, pH 7.2 • 15 mM MgCl2 • 0.15 mg/ml BSA • 2 mM DTT • 2-10 nM PLK1 kinase domain
Reaction Mix A (20 μl) is added per well. Reaction Mix B (20 μl) is added per well. Incubate 1.5 hrs. at RT. The enzymatic reaction is stopped with 175 μl of SPA/EDTA bead mix (29 mM EDTA, 2.5 mg/ml Streptavidin-coated SPA in Standard Dulbecco's PBS (without Mg^2+ and Ca^2+), 60 μM ATP). Plates are sealed spun (after a 1 hr incubation at RT) at 1,000×g for 7 min or settled overnight, then plates counted in Packard TopCount for 30 seconds/well.

[6] = tested on: Normal Human foreskin fibroblasts (HFF); test: Methylene Blue Growth Inhibition Assay, HFF; format: cell-based; details: 72 h, Cell Line HFF, 3 days, read-out: MeB IC50
Method: as §1

Compound	IC50 [1]	IC50 [2]	IC50 [3]	IC50 [4]	IC50 [5]	IC50 (PLK1 kinase domain)	IC50 [6]
COc1cc2ncn(-c3cc(OCc4ccccc4C(F)(F)F)c(C(N)=O)s3)c2cc1OC [Example 63, 5-(5,6-Dimethoxy-1H-benzimidazol-1-yl)-3-{[2-(trifluoromethyl)-benzyl]oxy}thiophene-2-carboxamide]	< 1 µM	< 1 µM	< 1 µM	1 to 10 µM	< 1 µM	< 0.1 µM	1 to 10 µM
Cc1ccccc1COc1cc(-n2cnc3cc(Cl)ccc32)sc1C(=O)O [Example 34, 5-(5-Chloro-1H-benzimidazol-1-yl)-3-[(2-methylbenzyl)oxy]thiophene-2-carboxylic acid]	> 10 µM	> 10 µM	> 10 µM	> 10 µM	> 10 µM	< 0.1 µM	> 10 µM
COc1cc2ncn(-c3cc(OCc4ccccc4Br)c(C(N)=O)s3)c2cc1OC [Example 65, 3-[(2-Bromobenzyl)oxy]-5-(5,6-dimethoxy-1H-benzimidazol-1-yl)thiophene-2-carboxamide]	< 1 µM	< 1 µM	< 1 µM	> 10 µM	< 1 µM	< 0.1 µM	> 10 µM
Cc1ccccc1COc1cc(-n2cnc3cc(O)ccc32)sc1C(=O)O [Example 141, 5-(5-Hydroxy-1H-benzimidazol-1-yl)-3-[(2-methylbenzyl)oxy]-thiophene-2-carboxylic acid]	–	–	–	–	–	< 0.1 µM	–
NC(=O)c1sc(-n2c(N)nc3ccccc32)cc1OCc1ccccc1C(F)(F)F [Example 148, 5-(2-Amino-1H-benzimidazol-1-yl)-3-{[2-(trifluoromethyl)benzyl]oxy}thiophene-2-carboxamide]	1 to 10 µM	1 to 10 µM	1 to 10 µM	> 10 µM	1 to 10 µM	0.1 to 10 µM	> 10 µM
O=C(O)c1sc(-n2cnc3cc(Cl)c(Cl)cc32)cc1OCc1ccsc1 [Example 79]	> 10 µM	> 10 µM	> 10 µM	> 10 µM	> 10 µM	< 0.1 µM	> 10 µM
COc1cc2ncn(-c3cc(OCc4ccccc4C(F)(F)F)c(-c4nnn[nH]4)s3)c2cc1OC [Example 147, 5,6-Dimethoxy-1-(5-(1H-tetraazol-5-yl)-4-{[2-(trifluoromethyl)-benzyl]oxy}thien-2-yl)-1H-benzimidazole]	> 10 µM	> 10 µM	> 10 µM	> 10 µM	> 10 µM	–	> 10 µM
COc1cc2ncn(-c3cc(O)c(C(N)=O)s3)c2cc1OC [Example 152, 5-(5,6-Dimethoxy-1H-benzimidazol-1-yl)-3-hydroxythiophene-2-carboxamide trifluoroacetate]	> 10 µM	> 10 µM	> 10 µM	> 10 µM	> 10 µM	0.1 to 10 µM	> 10 µM
COc1cc2ncn(-c3cc(OCC4CCCCC4)c(C(N)=O)s3)c2cc1OC [Example 111, 3-(Cyclohexylmethoxy)-5-(5,6-dimethoxy-1H-benzimidazol-1-yl)thiophene-2-carboxamide]	1 to 10 µM	1 to 10 µM	1 to 10 µM	1 to 10 µM	1 to 10 µM	–	> 10 µM
COc1cccc(COc2cc(-n3cnc4ccccc43)sc2C(N)=O)c1 [Example 14, 5-(1H-Benzimidazol-1-yl)-3-[(3-methoxybenzyl)oxy]-2-thiophenecarboxamide]	–	–	–	–	–	< 0.1 µM	–
COc1cc2ncn(-c3cc(OCc4ccccc4C(F)(F)F)c(C(=O)O)s3)c2cc1OC [Example 75]	> 10 µM	> 10 µM	> 10 µM	> 10 µM	1 to 10 µM	–	> 10 µM
Cc1ccccc1COc1cc(-n2cnc3ccccc32)sc1C(N)=O [Example 4, 5-(1H-Benzimidazol-1-yl)-3-[(2-methylbenzyl)oxy]-2-thiophenecarboxamide]	–	–	–	–	–	< 0.1 µM	–
COc1cc2ncn(-c3cc(OCCCc4ccccc4)c(C(N)=O)s3)c2cc1OC [Example 115, 5-(5,6-Dimethoxy-1H-benzimidazol-1-yl)-3-(3-phenylpropoxy)thiophene-2-carboxamide]	1 to 10 µM	1 to 10 µM	1 to 10 µM	> 10 µM	1 to 10 µM	–	> 10 µM
Cc1cccc(COc2cc(-n3cnc4ccccc43)sc2C(N)=O)c1 [Example 13, 5-(1H-Benzimidazol-1-yl)-3-[(3-methylbenzyl)oxy]-2-thiophenecarboxamide]	–	–	–	–	–	< 0.1 µM	–
NC(=O)c1sc(-n2cnc3ccccc32)cc1OCc1cccc(Cl)c1 [Example 15, 5-(1H-Benzimidazol-1-yl)-3-[(3-chlorobenzyl)oxy]-2-thiophenecarboxamide]	–	–	–	–	–	< 0.1 µM	–
COc1cc2ncn(-c3cc(OCc4ccccc4C(F)(F)F)c(C#N)s3)c2cc1OC [Example 146, 5-(5,6-Dimethoxy-1H-benzimidazol-1-yl)-1-{[2-(trifluoromethyl)benzyl]oxy}thiophene-2-carbonitrile]	–	–	–	–	–	0.1 to 10 µM	–
NC(=O)c1sc(-n2cnc3cc(Cl)ccc32)cc1OCc1ccccc1 [Example 84, 3-(Benzyloxy)-5-(5-chloro-1H-benzimidazol-1-yl)thiophene-2-carboxamide]	–	–	–	–	–	< 0.1 µM	–
COc1cc2ncn(-c3cc(OCCc4ccccc4)c(C(N)=O)s3)c2cc1OC [Example 114, 5-(5,6-Dimethoxy-1H-benzimidazol-1-yl)-3-(2-phenylethoxy)-thiophene-2-carboxamide]	> 10 µM	> 10 µM	> 10 µM	> 10 µM	> 10 µM	–	> 10 µM
O=C(NO)c1sc(-n2cnc3ccccc32)cc1OCc1ccccc1 [Example 144, 5-(1H-Benzimidazol-1-yl)-3-(benzyloxy)-N-hydroxythiophene-2-carboxamide]	–	–	–	–	–	0.1 to 10 µM	–
NC(=O)c1sc(-n2cnc3ccccc32)cc1OCc1ccccc1C(F)(F)F [Example 116, 5-(1H-Benzimidazol-1-yl)-3-{[2-(trifluoromethyl)benzyl]oxy}thiophene-2-carboxamide]	< 1 µM	< 1 µM	< 1 µM	> 10 µM	1 to 10 µM	–	1 to 10 µM
